Test results reported in patent US20240239804A1, “FUROINDAZOLE DERIVATIVES AS ANTAGONISTS OR INHIBITORS OF GPR84” (Bayer Aktiengesellschaft, priority 2021, published 2024).
Where a name gives a salt, the structure may show the parent alone.

The compounds below were run against T1, human GPR84 receptor (Homo sapiens, UniProt Q9NQS5) (assay: cAMP HTRF assay for identification of cellular GPR84 antagonists). Conditions: CHO-K1 cells stably expressing human GPR84; Forskolin plus agonist 6-OAU; cAMP HTRF readout; average or median values.
T1 construct: frozen aliquots prepared by acCELLerate; host or cells: CHO-K1
T1 sequence (Q9NQS5 whole entry): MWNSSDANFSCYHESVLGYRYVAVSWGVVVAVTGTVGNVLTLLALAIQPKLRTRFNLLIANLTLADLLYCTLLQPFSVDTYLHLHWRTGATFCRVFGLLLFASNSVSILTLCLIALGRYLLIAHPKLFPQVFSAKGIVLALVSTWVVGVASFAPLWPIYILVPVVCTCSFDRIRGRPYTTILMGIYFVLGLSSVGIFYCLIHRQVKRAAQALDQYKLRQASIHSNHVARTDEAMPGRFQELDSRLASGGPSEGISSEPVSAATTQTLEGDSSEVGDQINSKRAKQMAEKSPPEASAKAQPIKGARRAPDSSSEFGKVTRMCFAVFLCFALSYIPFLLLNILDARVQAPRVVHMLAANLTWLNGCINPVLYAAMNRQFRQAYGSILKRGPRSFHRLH
Type: cell-based
Excerpt: cAMP HTRF® Assay for Identification of Cellular GPR84 Antagonists
By using a Homogenous Time-Resolved Fluorescence (HTRF®) based assay (#62AM5PEJ, Cisbio, Condolet, France) the inhibition of the Gi-coupled GPR84 receptor can be detected. CHO-K1 cells stably expressing human GPR84 receptor (purchased from DiscoveRx, now Eurofins) were used and treated with Forskolin (F6886, Sigma, Germany) to stimulate membrane adenylyl cyclases and thereby unspecific cAMP formation. Activation of the Gi-coupled GPR84 by a natural or small molecule agonist (e.g. 6-n-octyl aminouracile, inhouse) results in inhibition of cellular cAMP formation which can be released again by antagonists to this receptor. Detection and quantification of cellular cAMP levels in this HTRF assay is achieved by interaction between a fluorescent cAMP tracer (cAMP-d2) and an Eu-cryptate labelled anti-cAMP antibody. Following excitation at 337 nm this pairing allows for the generation of a fluorescence resonance energy transfer (FRET) between the partners and results in FRET induced emissions at 665 nm and 620 nm, the latter representing background signal by Eu-cryptate labelled anti-cAMP antibody. Maximal signal is obtained in the absence of any cellular cAMP (no competition for the binding of the tracer to the antibody). Given the combination of the Gi coupling properties of GPR84 and the competitive nature of the detection system agonist treatment should result in an increase in the HTRF signal due to lowered cAMP levels. Any signal decrease in the presence of Forskolin, agonist and compound are indicative of antagonist mediated abrogation of GPR84 signalling.
For the assay, frozen aliquots of CHO-K1 cells expressing hGPR84 (prepared by acCELLerate, Hamburg, Germany) were thawed and a cell suspension (1.67E+06 cells/mL) in assay media (Ham's F12 Nutrient Mix, Thermo Fisher Scientific, Waltham, USA; 5% fetal calf serum, Biomol, Hamburg, Germany) containing cAMP-d2 (dilution 1:20, supplied with the kit #62AM5PEJ, Cisbio, Condolet, France) was prepared. After recovery of cells for 20 minutes at 37° C., 3 μL/well cell suspension including cAMP-d2 were added to a pre-dispensed assay plate (Greiner Bio-One, Kremsmuenster, Austria) containing 50 nl/well test compound in 100% DMSO or 100% DMSO as control. This was followed by a 30 minute incubation step at room temperature. The stimulation time was started by addition of 2 μL/well assay media containing 2.5×EC80 agonist 6-OAU and 2.5×EC90 Forskolin (negative control: 2.5×EC90 Forskolin in assay media) and was continued for 30 minutes at room temperature. The reaction was stopped by addition of 3 μL/well lysis buffer containing cAMP Eu-Cryptate antibody (dilution 1:20) (both supplied with the kit #62AM5PEJ, Cisbio, Condolet, France). To enable complete lysis, plates were incubated for 60 minutes at room temperature before measurement in an HTRF reader, e.g. a PHERAstar (BMG Labtech, Ortenberg, Germany).
From the fluorescence emissions at 665 nm (FRET) and at 620 nm (background signal of Eu-cryptate) the ratio (emission at 665 nm divided by emission at 620 nm×10000) was calculated and the data were normalized (reaction without test compound, only 100% DMSO=0% inhibition; all other assay components except agonist=100% inhibition). For dose response testing on the same microtiter plate, compounds were tested at 11 different concentrations in the range of 20 μM to 0.07 nM (20 μM, 5.7 μM, 1.6 μM, 0.47 μM, 0.13 μM, 38 nM, 11 nM, 3.1 nM, 0.89 nM, 0.25 and 0.07 nM; dilution series prepared before the assay at the level of the 100-fold conc. stock solutions by serial 1:3.5 dilutions in 100% DMSO) in duplicate values for each concentration. IC50 values were calculated by 4-parameter fitting using a commercial software package (Genedata Screener, Basel, Switzerland).
Examples were tested in selected biological assays one or more times. […]
Compound Cc1c(C(=O)NCc2nccn2C)oc2c1-c1nn(Cc3ccc(Cl)cc3)cc1CC2 [Example 53, 2-[(4-chlorophenyl)methyl]-8-methyl-N-[(1-methyl-1H-imidazol-2-yl)methyl]-4,5-dihydro-2H-furo[2,3-g]indazole-7-carboxamide] has an IC50 of 3.04 µM.
For Cc1c(C(=O)NCC2CCOCC2)oc2c1-c1nn(Cc3ccc(Cl)cc3)cc1CC2 [Example 52, 2-[(4-chlorophenyl)methyl]-8-methyl-N-[(oxan-4-yl)methyl]-4,5-dihydro-2H-furo[2,3-g]indazole-7-carboxamide], the IC50 was 2.96 µM.
In the case of Cc1c(C(=O)N2CCC(CO)CC2)oc2c1-c1nn(Cc3ccc(Cl)cc3)cc1CC2 [Example 79, {2-[(4-chlorophenyl)methyl]-8-methyl-4,5-dihydro-2H-furo[2,3-g]indazol-7-yl}[4-(hydroxymethyl)piperidin-1-yl]methanone], the IC50 is reported as 15.5 µM.
Work on Cc1c(C(=O)N2CCC[C@@H]2C(N)=O)oc2c1-c1nn(Cc3ccc(Cl)cc3)cc1CC2 [Example 82, 1-{2-[(4-chlorophenyl)methyl]-8-methyl-4,5-dihydro-2H-furo[2,3-g]indazole-7-carbonyl}-D-prolinamide] yielded an IC50 of 16.4 µM.
For Cc1c(C(=O)NCc2cncn2C)oc2c1-c1nn(Cc3ccc(Cl)cc3)cc1CC2 [Example 54, 2-[(4-chlorophenyl)methyl]-8-methyl-N-[(1-methyl-1H-imidazol-5-yl)methyl]-4,5-dihydro-2H-furo[2,3-g]indazole-7-carboxamide], the IC50 was 3.39 µM.
For Cc1c(C(=O)NCc2cnn3ccccc23)oc2c1-c1nn(Cc3ccc(Cl)cc3)cc1CC2 [Example 50, 2-[(4-chlorophenyl)methyl]-8-methyl-N-[(pyrazolo[1,5-a]pyridin-3-yl)methyl]-4,5-dihydro-2H-furo[2,3-g]indazole-7-carboxamide], the IC50 was 2.69 µM.
Cc1c(C(=O)NCc2nccs2)oc2c1-c1nn(Cc3ccc(Cl)cc3)cc1CC2 [Example 38, 2-[(4-chlorophenyl)methyl]-8-methyl-N-[(1,3-thiazol-2-yl)methyl]-4,5-dihydro-2H-furo[2,3-g]indazole-7-carboxamide] showed an IC50 of 0.21 µM.
In the case of Cc1ccccc1Cn1cc2c(n1)-c1c(oc(C(=O)NCc3ccon3)c1C)CC2 [Example 8, 8-methyl-2-[(2-methylphenyl)methyl]-N-[(1,2-oxazol-3-yl)methyl]-4,5-dihydro-2H-furo[2,3-g]indazole-7-carboxamide], the IC50 is reported as 0.24 µM.
Cc1c(C(=O)NCCN2CCN(C)CC2)oc2c1-c1nn(Cc3ccc(Cl)cc3)cc1CC2 [Example 23, 2-[(4-chlorophenyl)methyl]-8-methyl-N-[2-(4-methylpiperazin-1-yl)ethyl]-4,5-dihydro-2H-furo[2,3-g]indazole-7-carboxamide] gave an IC50 of 0.3 µM.
Cc1ccccc1Cn1cc2c(n1)-c1c(oc(C(=O)NCC3CCCN3)c1C)CC2 (racemic) [Example 7-3, 8-methyl-2-[(2-methylphenyl)methyl]-N-{[(2RS)-pyrrolidin-2-yl]methyl}-4,5-dihydro-2H-furo[2,3-g]indazole-7-carboxamide hydrochloride (1:1)] showed an IC50 of 1.18 µM.
Cc1ccccc1Cn1cc2c(n1)-c1c(oc(C(=O)NCC3CCCN3)c1C)CC2 (racemic) [Example 7, 8-methyl-2-[(2-methylphenyl)methyl]-N-{[(2RS)-pyrrolidin-2-yl]methyl}-4,5-dihydro-2H-furo[2,3-g]indazole-7-carboxamide] was tested, and the IC50 was 0.68 µM.
Work on CC(=O)N1CCN(C(=O)c2oc3c(c2C)-c2nn(Cc4ccc(Cl)cc4)cc2CC3)CC1 [Example 62, 1-(4-{2-[(4-chlorophenyl)methyl]-8-methyl-4,5-dihydro-2H-furo[2,3-g]indazole-7-carbonyl}piperazin-1-yl)ethan-1-one] yielded an IC50 of 6.1 µM.
Work on Cc1c(C(=O)NC[C@@H]2CCCO2)oc2c1-c1nn(C(C)c3ccccc3F)cc1CC2 (mixture of isomers) [Example 95, 2-[(1RS)-1-(2-fluorophenyl)ethyl]-8-methyl-N-[(2S)-tetrahydrofuran-2-ylmethyl]-4,5-dihydro-2H-furo[2,3-g]indazole-7-carboxamide] yielded an IC50 of 0.75 µM.
In the case of Cc1ccccc1Cn1cc2c(n1)-c1c(oc(C(=O)NCC3CCCN3C(=O)OC(C)(C)C)c1C)CC2 (racemic) [Example 6, tert-butyl (2RS)-2-[{{8-methyl-2-[(2-methylphenyl)methyl]-4,5-dihydro-2H-furo[2,3-g]indazole-7-carbonyl}amino)methyl]pyrrolidine-1-carboxylate], the IC50 is reported as 2.22 µM.
For Cc1c(C(=O)NCc2cnn(C)c2)oc2c1-c1nn(Cc3ccc(Cl)cc3)cc1CC2 [Example 47, 2-[(4-chlorophenyl)methyl]-8-methyl-N-[(1-methyl-1H-pyrazol-4-yl)methyl]-4,5-dihydro-2H-furo[2,3-g]indazole-7-carboxamide], the IC50 was 1.87 µM.
Compound Cc1c(C(=O)NCCN2CCC2)oc2c1-c1nn(Cc3ccccc3Cl)cc1CC2 [Example 14, N-[2-(azetidin-1-yl)ethyl]-2-[(2-chlorophenyl)methyl]-8-methyl-4,5-dihydro-2H-furo[2,3-g]indazole-7-carboxamide] has an IC50 of 1.15 µM.
Cc1c(C(=O)NCCN2CCN(C)CC2)oc2c1-c1nn(Cc3ccc(F)cc3Cl)cc1CC2 [Example 93] showed an IC50 of 0.82 µM.
Cc1c(C(=O)N(C)Cc2cccnc2)oc2c1-c1nn(Cc3ccc(Cl)cc3)cc1CC2 [Example 69, 2-[(4-chlorophenyl)methyl]-N,8-dimethyl-N-[(pyridin-3-yl)methyl]-4,5-dihydro-2H-furo[2,3-g]indazole-7-carboxamide] gave an IC50 of 9.4 µM.
CCNC(=O)CNC(=O)c1oc2c(c1C)-c1nn(Cc3ccc(Cl)cc3)cc1CC2 [Example 30, 2-[(4-chlorophenyl)methyl]-N-[2-(ethylamino)-2-oxoethyl]-8-methyl-4,5-dihydro-2H-furo[2,3-g]indazole-7-carboxamide] was tested, and the IC50 was 0.5 µM.
COCCN(C)C(=O)c1oc2c(c1C)-c1nn(Cc3ccc(Cl)cc3)cc1CC2 [Example 80, 2-[(4-chlorophenyl)methyl]-N-(2-methoxyethyl)-N,8-dimethyl-4,5-dihydro-2H-furo[2,3-g]indazole-7-carboxamide] showed an IC50 of 15.9 µM.
Cc1c(C(=O)NCCN2CCCC2)oc2c1-c1nn(Cc3cccc(Cl)c3)cc1CC2 [Example 18, 2-[(3-chlorophenyl)methyl]-8-methyl-N-[2-(pyrrolidin-1-yl)ethyl]-4,5-dihydro-2H-furo[2,3-g]indazole-7-carboxamide] showed an IC50 of 1 µM.
For Cc1c(C(=O)N(C)Cc2ncc[nH]2)oc2c1-c1nn(Cc3ccc(Cl)cc3)cc1CC2 [Example 74, 2-[(4-chlorophenyl)methyl]-N-[(1H-imidazol-2-yl)methyl]-N,8-dimethyl-4,5-dihydro-2H-furo[2,3-g]indazole-7-carboxamide], the IC50 was 10.8 µM.
In the case of Cc1c(C(=O)NCCCO)oc2c1-c1nn(Cc3ccc(Cl)cc3)cc1CC2 [Example 64, 2-[(4-chlorophenyl)methyl]-N-(3-hydroxypropyl)-8-methyl-4,5-dihydro-2H-furo[2,3-g]indazole-7-carboxamide], the IC50 is reported as 6.68 µM.
Cc1c(C(=O)N2CC(C)OC(C)C2)oc2c1-c1nn(Cc3ccc(Cl)cc3)cc1CC2 (stereo not shown) [Example 75, {2-[(4-chlorophenyl)methyl]-8-methyl-4,5-dihydro-2H-furo[2,3-g]indazol-7-yl}(2,6-dimethylmorpholin-4-yl)methanone] was tested, and the IC50 was 12.3 µM.
Compound Cc1c(C(=O)N2CCCC(C(N)=O)C2)oc2c1-c1nn(Cc3ccc(Cl)cc3)cc1CC2 (stereo not shown) [Example 88, 1-{2-[(4-chlorophenyl)methyl]-8-methyl-4,5-dihydro-2H-furo[2,3-g]indazole-7-carbonyl}piperidine-3-carboxamide] has an IC50 of 17.3 µM.
